# Columns and labels:
# DOHH2 cells = experiment: Cell proliferation assay (MTS), DOHH2 cells, 120 h; format: cell-based; conditions: Homo sapiens, DOHH-2, 120 h
# Outline: (§1)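 RS4;11 and DOHH2 cells at 5000 cells/well in RPMI-1640 with 10% FBS were treated with compound at 1.5–10000 nM final, nine points, at 37 °C, 5% CO2. Exposure was 72 h for RS4;11 and 120 h for DOHH2. MTS was added for 2 h, absorbance read at 490/650 nm, and IC50 calculated.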
# RS4;11 cells = experiment: Cell proliferation assay (MTS), RS4;11 cells, 72 h; format: cell-based; conditions: Homo sapiens, RS4-11, 72 h
# Outline: as §1
Compound,IC50 (RS4;11 cells),IC50 (DOHH2 cells)
"CN1CCN(C[C@@H]2CSc3cc(S(=O)(=O)NC(=O)c4ccc(N5CCN(CC6=C(c7ccc(Cl)cc7)CC(C)(C)CC6)CC5)cc4Oc4cnc5[nH]ccc5c4)cc([N+](=O)[O-])c3N2)CC1 [Example 3-1, (R)-2-((1H-pyrrolo[2,3-b]pyridin-5-yl)oxy)-4-(4-((4′-chloro-5,5-dimethyl-3,4,5,6-tetrahydro-[1,1′-biphenyl]-2-yl)methyl)piperazin-1-yl)-N-((3-((4-methylpiperazin-1-yl)methyl)-5-nitro-3,4-dihydro-2H-benzo[b][1,4]thiazin-7-yl)sulfonyl)benzamide]",1 nM,3 nM
"CC1(C)CCC(CN2CCN(c3ccc(C(=O)NS(=O)(=O)c4cc5c(c([N+](=O)[O-])c4)N[C@H](CCN4CCOCC4)CS5)c(Oc4cnc5[nH]ccc5c4)c3)CC2)=C(c2ccc(Cl)cc2)C1 [Example 3-2, (R)-2-((1H-pyrrolo[2,3-b]pyridin-5-yl)oxy)-4-(4-((4′-chloro-5,5-dimethyl-3,4,5,6-tetrahydro-[1,1′-biphenyl]-2-yl)methyl)piperazin-1-yl)-N-((3-(2-morpholinoethyl)-5-nitro-3,4-dihydro-2H-benzo[b][1,4]thiazin-7-yl)sulfonyl)benzamide]",3 nM,13 nM
"CC1(C)CCC(CN2CCN(c3ccc(C(=O)NS(=O)(=O)c4cc5c(c([N+](=O)[O-])c4)N[C@H](CN4CCOCC4)CS5)c(Oc4cnc5[nH]ccc5c4)c3)CC2)=C(c2ccc(Cl)cc2)C1 [Example 3-3, (R)-2-((1H-pyrrolo[2,3-b]pyridin-5-yl)oxy)-4-(4-((4′-chloro-5,5-dimethyl-3,4,5,6-tetra-hydro-[1,1′-biphenyl]-2-yl)methyl)piperazin-1-yl)-N-((3-(morpholinomethyl)-5-nitro-3,4-dihydro-2H-benzo[b][1,4]thiazin-7-yl)sulfonyl)benzamide]",35 nM,58 nM
"CN(C)C[C@@H]1CSc2cc(S(=O)(=O)NC(=O)c3ccc(N4CCN(CC5=C(c6ccc(Cl)cc6)CC(C)(C)CC5)CC4)cc3Oc3cnc4[nH]ccc4c3)cc([N+](=O)[O-])c2N1 [Example 3-4, (R)-2-((1H-pyrrolo[2,3-b]pyridin-5-yl)oxy)-4-(4-((4′-chloro-5,5-dimethyl-3,4,5,6-tetra-hydro-[1,1′-biphenyl]-2-yl)methyl)piperazin-1-yl)-N-((3-((dimethylamino)methyl)-5-nitro-3,4-dihydro-2H-benzo[b][1,4]thiazin-7-yl)sulfonyl)benzamide]",12 nM,41 nM
"CN(C)C[C@H]1CSc2cc(S(=O)(=O)NC(=O)c3ccc(N4CCN(CC5=C(c6ccc(Cl)cc6)CC(C)(C)CC5)CC4)cc3Oc3cnc4[nH]ccc4c3)cc([N+](=O)[O-])c2N1 [Example 3-8, (S)-2-((1H-pyrrolo[2,3-b]pyridin-5-yl)oxy)-4-(4-((4′-chloro-5,5-dimethyl-3,4,5,6-tetra-hydro-[1,1′-biphenyl]-2-yl)methyl)piperazin-1-yl)-N-((3-((dimethylamino)methyl)-5-nitro-3,4-dihydro-2H-benzo[b][1,4]thiazin-7-yl)sulfonyl)benzamide]",17 nM,67 nM
"CN1CCN(C[C@H]2CSc3cc(S(=O)(=O)NC(=O)c4ccc(N5CCN(CC6=C(c7ccc(Cl)cc7)CC(C)(C)CC6)CC5)cc4Oc4cnc5[nH]ccc5c4)cc([N+](=O)[O-])c3N2)CC1 [Example 3-9, (S)-2-((1H-pyrrolo[2,3-b]pyridin-5-yl)oxy)-4-(4-((4′-chloro-5,5-dimethyl-3,4,5,6-tetra-hydro-[1,1′-biphenyl]-2-yl)methyl)piperazin-1-yl)-N-((3-((4-methylpiperazin-1-yl)methyl)-5-nitro-3,4-dihydro-2H-benzo[b][1,4]thiazin-7-yl)sulfonyl)benzamide]",13 nM,24 nM
"CC1(C)CCC(CN2CCN(c3ccc(C(=O)NS(=O)(=O)c4cc5c(c([N+](=O)[O-])c4)N[C@@H](CN4CCOCC4)CS5)c(Oc4cnc5[nH]ccc5c4)c3)CC2)=C(c2ccc(Cl)cc2)C1 [Example 3-10, (S)-2-((1H-pyrrolo[2,3-b]pyridin-5-yl)oxy)-4-(4-((4′-chloro-5,5-dimethyl-3,4,5,6-tetra-hydro-[1,1′-biphenyl]-2-yl)methyl)piperazin-1-yl)-N-((3-(morpholinomethyl)-5-nitro-3,4-dihydro-2H-benzo[b][1,4]thiazin-7-yl)sulfonyl)benzamide]",11 nM,32 nM
"CN1CCN(CC[C@@H]2CSc3cc(S(=O)(=O)NC(=O)c4ccc(N5CCN(CC6=C(c7ccc(Cl)cc7)CC(C)(C)CC6)CC5)cc4Oc4cnc5[nH]ccc5c4)cc([N+](=O)[O-])c3N2)CC1 [Example 3-14, (R)-2-((1H-pyrrolo[2,3-b]pyridin-5-yl)oxy)-4-(4-((4′-chloro-5,5-dimethyl-3,4,5,6-tetra-hydro-[1,1′-biphenyl]-2-yl)methyl)piperazin-1-yl)-N-((3-(2-(4-methylpiperazin-1-yl)ethyl)-5-nitro-3,4-dihydro-2H-benzo[b][1,4]thiazin-7-yl)sulfonyl)benzamide]",4 nM,9 nM

# Second part, led by results:
IC50 (RS4;11 cells),Compound,IC50 (DOHH2 cells)
8 nM,"CC1(C)CCC(CN2CCN(c3ccc(C(=O)NS(=O)(=O)c4cc5c(c([N+](=O)[O-])c4)N[C@H](CO)CS5)c(Oc4cnc5[nH]ccc5c4)c3)CC2)=C(c2ccc(Cl)cc2)C1 [Example 3-5, (R)-2-((1H-pyrrolo[2,3-b]pyridin-5-yl)oxy)-4-(4-((4′-chloro-5,5-dimethyl-3,4,5,6-tetra-hydro-[1,1′-biphenyl]-2-yl)methyl)piperazin-1-yl)-N-((3-(hydroxymethyl)-5-nitro-3,4-dihydro-2H-benzo[b][1,4]thiazin-7-yl)sulfonyl) benzamide]",12 nM
8 nM,"COC[C@@H]1CSc2cc(S(=O)(=O)NC(=O)c3ccc(N4CCN(CC5=C(c6ccc(Cl)cc6)CC(C)(C)CC5)CC4)cc3Oc3cnc4[nH]ccc4c3)cc([N+](=O)[O-])c2N1 [Example 3-6, (R)-2-((1H-pyrrolo[2,3-b]pyridin-5-yl)oxy)-4-(4-((4′-chloro-5,5-dimethyl-3,4,5,6-tetra-hydro-[1,1′-biphenyl]-2-yl)methyl)piperazin-1-yl)-N-((3-(methoxymethyl)-5-nitro-3,4-dihydro-2H-benzo[b][1,4]thiazin-7-yl)sulfonyl)benzamide]",14 nM
10 nM,"CC1(C)CCC(CN2CCN(c3ccc(C(=O)NS(=O)(=O)c4cc5c(c([N+](=O)[O-])c4)N[C@@H](CO)CS5)c(Oc4cnc5[nH]ccc5c4)c3)CC2)=C(c2ccc(Cl)cc2)C1 [Example 3-7, (S)-2-((1H-pyrrolo[2,3-b]pyridin-5-yl)oxy)-4-(4-((4′-chloro-5,5-dimethyl-3,4,5,6-tetra-hydro-[1,1′-biphenyl]-2-yl)methyl)piperazin-1-yl)-N-((3-(hydroxymethyl)-5-nitro-3,4-dihydro-2H-benzo[b][1,4]thiazin-7-yl)sulfonyl) benzamide]",31 nM
11 nM,"CC1(C)CCC(CN2CCN(c3ccc(C(=O)NS(=O)(=O)c4cc5c(c([N+](=O)[O-])c4)N[C@H](CCO)CS5)c(Oc4cnc5[nH]ccc5c4)c3)CC2)=C(c2ccc(Cl)cc2)C1 [Example 3-11, (R)-2-((1H-pyrrolo[2,3-b]pyridin-5-yl)oxy)-4-(4-((4′-chloro-5,5-dimethyl-3,4,5,6-tetra-hydro-[1,1′-biphenyl]-2-yl)methyl)piperazin-1-yl)-N-((3-(2-hydroxyethyl)-5-nitro-3,4-dihydro-2H-benzo[b][1,4]thiazin-7-yl)sulfonyl) benzamide]",16 nM
84 nM,"COCC[C@@H]1CSc2cc(S(=O)(=O)NC(=O)c3ccc(N4CCN(CC5=C(c6ccc(Cl)cc6)CC(C)(C)CC5)CC4)cc3Oc3cnc4[nH]ccc4c3)cc([N+](=O)[O-])c2N1 [Example 3-12, (R)-2-((1H-pyrrolo[2,3-b]pyridin-5-yl)oxy)-4-(4-((4′-chloro-5,5-dimethyl-3,4,5,6-tetra-hydro-[1,1′-biphenyl]-2-yl)methyl)piperazin-1-yl)-N-((3-(2-methoxyethyl)-5-nitro-3,4-dihydro-2H-benzo[b][1,4]thiazin-7-yl)sulfonyl)benzamide]",120 nM
2 nM,"CN(C)CC[C@@H]1CSc2cc(S(=O)(=O)NC(=O)c3ccc(N4CCN(CC5=C(c6ccc(Cl)cc6)CC(C)(C)CC5)CC4)cc3Oc3cnc4[nH]ccc4c3)cc([N+](=O)[O-])c2N1 [Example 3-13, (R)-2-((1H-pyrrolo[2,3-b]pyridin-5-yl)oxy)-4-(4-((4′-chloro-5,5-dimethyl-3,4,5,6-tetra-hydro-[1,1′-biphenyl]-2-yl)methyl)piperazin-1-yl)-N-((3-(2-(dimethylamino)ethyl)-5-nitro-3,4-dihydro-2H-benzo[b][1,4]thiazin-7-yl)sulfonyl)benzamide]",2 nM
13 nM,"CC1(C)CCC(CN2CCN(c3ccc(C(=O)NS(=O)(=O)c4cc5c(c([N+](=O)[O-])c4)N[C@@H](CCO)CS5)c(Oc4cnc5[nH]ccc5c4)c3)CC2)=C(c2ccc(Cl)cc2)C1 [Example 3-15, (S)-2-((1H-pyrrolo[2,3-b]pyridin-5-yl)oxy)-4-(4-((4′-chloro-5,5-dimethyl-3,4,5,6-tetra-hydro-[1,1′-biphenyl]-2-yl)methyl)piperazin-1-yl)-N-((3-(2-hydroxyethyl)-5-nitro-3,4-dihydro-2H-benzo[b][1,4]thiazin-7-yl)sulfonyl) benzamide]",48 nM
33 nM,"COCC[C@H]1CSc2cc(S(=O)(=O)NC(=O)c3ccc(N4CCN(CC5=C(c6ccc(Cl)cc6)CC(C)(C)CC5)CC4)cc3Oc3cnc4[nH]ccc4c3)cc([N+](=O)[O-])c2N1 [Example 3-16, (S)-2-((1H-pyrrolo[2,3-b]pyridin-5-yl)oxy)-4-(4-((4′-chloro-5,5-dimethyl-3,4,5,6-tetra-hydro-[1,1′-biphenyl]-2-yl)methyl)piperazin-1-yl)-N-((3-(2-methoxyethyl)-5-nitro-3,4-dihydro-2H-benzo[b][1,4]thiazin-7-yl)sulfonyl)benzamide]",132 nM

# Source: US11091478B2 (Fochon Pharmaceuticals, Ltd., priority 2017, dated 2021)
